Among the test systems are A498; ACHN; EKVX; HCT-15; HL-60; HOP-92; IGROV-1; K562; LOX IMVI; MCF7; MDA-N; MOLT-4; NCI-H522; OVCAR-3; PC-3; SF-539; SK-OV-3; SNB-19; T47D; TK-10.
Holding throughout (assay): inhibition of tumour cell growth, NCI panel, 48 h

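Grown in 96-well plates, cells were treated for 48 hours with each compound at five concentrations. Insufficient inhibition: endpoint recorded as highest concentration tested. The concentration for 50% growth inhibition is given as GI50.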 The source made the active and inactive calls. Cut-off read from the data, not from the text of the source: active = GI50 up to about 1.1 µM and inactive = higher. Non-standard residues stand in square brackets, D forms with d. Residues, ends and D or L forms follow the SMILES beside them. *: point of attachment. Cbz = O=C(OCc1ccccc1)*; Boc = CC(C)(C)OC(=O)*; Aib = CC(C)(N)C(=O)O; OBn = c1ccc(CO*)cc1; OtBu = CC(C)(C)O*; βAla = NCCC(=O)O A value given as a limit tells only on which side of the number the result lay.

With `Cc1ccc([N+](=O)[O-])c2c(NCCC[N+](C)(C)[O-])ccnc12`, the GI50 with A498 was 32.2 µM (inactive); with ACHN, 61.5 µM (inactive); in the test with EKVX it was > 100 µM (inactive); with HCT-15, > 10 µM; with HL-60, 31.3 µM (inactive); in the test with HOP-92, 50.9 µM (inactive). Further, the GI50 in the test on IGROV-1 is 20.6 µM (inactive); with K562 it was 27.5 µM (inactive); in the test on LOX IMVI, 49.5 µM (inactive); with MCF7, 14.9 µM (inactive); with MDA-N, > 100 µM (inactive); in the test on MOLT-4, 34.8 µM (inactive). Besides, the GI50 in the test with NCI-H522 was 15 µM (inactive); with OVCAR-3 it was 33.9 µM (inactive); in the test with PC-3 it was 50.8 µM (inactive); in the test with SF-539 it was > 100 µM (inactive); with SK-OV-3, 52 µM (inactive); with SNB-19, 89.5 µM (inactive). The GI50 in the test on T47D was 35.1 µM (inactive); with TK-10, > 100 µM (inactive).
Consider `CC(C)OP(=O)(CN(C)/C(F)=N\C(F)(F)F)OC(C)C`, for which the GI50 in the test with A498 was > 100 µM (inactive); in the test with ACHN, > 100 µM (inactive); in the test on EKVX, > 100 µM (inactive); with HCT-15, > 100 µM; in the test on HL-60, 63.8 µM (inactive); in the test on HOP-92, > 100 µM (inactive). In addition, the GI50 with IGROV-1, in the test on K562, with LOX IMVI, in the test on MCF7, in the test with MDA-N and in the test with MOLT-4 was > 100 µM (inactive) each time. For the same molecule, the GI50 is 8.2 µM (inactive) in the test with NCI-H522; > 100 µM (inactive) in the test on OVCAR-3; > 100 µM (inactive) in the test with PC-3; > 100 µM (inactive) in the test on SF-539; > 100 µM (inactive) with SK-OV-3; > 100 µM (inactive) in the test with SNB-19. Moreover, the GI50 in the test with T47D and with TK-10 was > 100 µM (inactive) in each case.
For the molecule `N#CCCCC[N+]12CN3CN(CN(C3)C1)C2`, the GI50 is > 100 µM (inactive) in the test on A498; > 100 µM (inactive) with ACHN; > 100 µM (inactive) in the test on EKVX; > 100 µM with HCT-15; > 100 µM (inactive) in the test on HL-60; > 100 µM (inactive) in the test with HOP-92. For the same molecule, the GI50 was > 100 µM (inactive) in the test with IGROV-1; > 100 µM (inactive) with K562; 32.1 µM (inactive) with LOX IMVI; 45.7 µM (inactive) in the test on MCF7; > 100 µM (inactive) in the test on MDA-N; > 100 µM (inactive) in the test with MOLT-4. In addition, the GI50 in the test with NCI-H522 was > 100 µM (inactive); in the test with OVCAR-3, > 100 µM (inactive); with PC-3, > 100 µM (inactive); in the test on SF-539 it was 22.6 µM (inactive); with SK-OV-3 it was > 100 µM (inactive); in the test on SNB-19, > 100 µM (inactive). For the same molecule, the GI50 with T47D and in the test with TK-10 was > 100 µM (inactive) throughout.
Take `CC(C)(C)OC(=O)CC(NC(=O)OC(C)(C)C)C(=O)NC(CCCCNC(=O)OCc1ccccc1)C(=O)NC(C)(C)C(=O)NCCC(=O)OCc1ccccc1` (stereo not given) (Boc-D(OtBu)K(Cbz)[Aib][βAla]-OBn; configuration not given here): the GI50 in the test on A498 is 86.3 µM (inactive); in the test on ACHN it was > 100 µM (inactive); in the test on EKVX, > 100 µM (inactive); in the test on HCT-15 it was > 100 µM; with HL-60, > 100 µM (inactive); with HOP-92, > 100 µM (inactive). Besides, the GI50 with IGROV-1, in the test on K562, in the test with LOX IMVI, with MCF7, with MDA-N and in the test with MOLT-4 was > 100 µM (inactive) in each case. In addition, the GI50 with NCI-H522, in the test with OVCAR-3, with PC-3, with SF-539, in the test on SK-OV-3 and in the test on SNB-19 was > 100 µM (inactive) in each case. Moreover, the GI50 in the test on T47D and in the test with TK-10 was > 100 µM (inactive) throughout.
As for `COc1ccc2c(c1)CCCN1Cc3ccccc3CC21` (stereo not given), the GI50 in the test on A498 was 27 µM (inactive); in the test with ACHN, > 100 µM (inactive); in the test with EKVX it was 98.4 µM (inactive); with HCT-15, > 100 µM; in the test with HL-60, 28.8 µM (inactive); in the test with HOP-92, 30.7 µM (inactive). Moreover, the GI50 in the test with IGROV-1 was 49.4 µM (inactive); in the test on K562 it was 31.3 µM (inactive); in the test on LOX IMVI, 43.5 µM (inactive); in the test with MCF7 it was > 100 µM (inactive); in the test on MDA-N, 38.2 µM (inactive); with MOLT-4, 54.2 µM (inactive). For the same molecule, the GI50 in the test with NCI-H522 is > 100 µM (inactive); in the test with OVCAR-3, 52.7 µM (inactive); in the test on PC-3, 78.9 µM (inactive); in the test with SF-539, 92.7 µM (inactive); in the test with SK-OV-3, > 100 µM (inactive); in the test with SNB-19 it was 67.1 µM (inactive). Moreover, the GI50 was 33.7 µM (inactive) in the test on T47D and > 100 µM (inactive) in the test with TK-10.
As for `O=C1N=NC(=O)N1c1cc(C(F)(F)F)cc(C(F)(F)F)c1`, the GI50 is 5.4 µM (inactive) with A498; 4.04 µM (inactive) in the test with ACHN; 3.24 µM (inactive) in the test with EKVX; 3.2 µM in the test with HCT-15; 3.61 µM (inactive) in the test on HL-60; 2.75 µM (inactive) in the test with HOP-92. Further, the GI50 with IGROV-1 is 3.83 µM (inactive); with K562, 3.37 µM (inactive); with LOX IMVI it was 3.27 µM (inactive); in the test with MCF7, 3.35 µM (inactive); in the test on MDA-N it was 4.17 µM (inactive); in the test with MOLT-4, 3.37 µM (inactive). The GI50 in the test on NCI-H522 was 2.07 µM (inactive); in the test with OVCAR-3, 2.44 µM (inactive); in the test with PC-3 it was 2.65 µM (inactive); in the test with SF-539 it was 4.86 µM (inactive); in the test on SK-OV-3, 3.81 µM (inactive); with SNB-19 it was 4.03 µM (inactive). For the same molecule, the GI50 was 3.61 µM (inactive) in the test with T47D and 3.68 µM (inactive) in the test on TK-10.
Turning to `COC(=O)C1(Cc2ccc3c(c2)CCC3)Cc2cc3c(cc2C1=O)CCC3` (stereo not given), the GI50 is 10.7 µM (inactive) in the test on A498; 37.2 µM (inactive) in the test on ACHN; 21.3 µM (inactive) with EKVX; 26.5 µM in the test with HCT-15; 6.67 µM (inactive) in the test with HL-60; 7.74 µM (inactive) in the test on HOP-92. The GI50 was 24.4 µM (inactive) in the test with IGROV-1; 8.93 µM (inactive) in the test with K562; 25.1 µM (inactive) with LOX IMVI; 21.4 µM (inactive) with MCF7; 13 µM (inactive) in the test on MDA-N; 16.5 µM (inactive) in the test on MOLT-4. Moreover, the GI50 with NCI-H522 was 8.85 µM (inactive); in the test with OVCAR-3, 44.6 µM (inactive); in the test on PC-3 it was 17.9 µM (inactive); in the test with SF-539, > 46.5 µM (inactive); in the test on SK-OV-3, > 46.5 µM (inactive); with SNB-19 it was 31.2 µM (inactive). Moreover, the figures for the GI50 in the test with T47D and with TK-10 were 10.8 µM (inactive) and > 46.5 µM (inactive), respectively.
In the case of `COc1ccc(C(=O)/C=C/c2cccnc2)cc1OC`, the GI50 is 14.6 µM (inactive) with A498; 13.8 µM (inactive) with ACHN; 15.1 µM (inactive) with EKVX; 11.4 µM with HCT-15; 2.36 µM (inactive) in the test on HL-60; 13 µM (inactive) in the test with HOP-92. The GI50 is 9.64 µM (inactive) in the test on IGROV-1; 13.9 µM (inactive) with K562; 1.58 µM (inactive) in the test with LOX IMVI; 3.27 µM (inactive) in the test on MCF7; 12.4 µM (inactive) with MDA-N; 3.33 µM (inactive) with MOLT-4. Also, the GI50 in the test on NCI-H522 was 1.83 µM (inactive); with OVCAR-3, 3.4 µM (inactive); in the test with PC-3, 14.7 µM (inactive); in the test with SF-539, 2.73 µM (inactive); in the test with SK-OV-3 it was 15.3 µM (inactive); in the test with SNB-19 it was 14.5 µM (inactive). Moreover, the GI50 in the test with T47D was 8.45 µM (inactive); in the test on TK-10, 15.7 µM (inactive).
As to `NC(Cc1ccnnc1)C(=O)O` (stereo not given), the GI50 in the test with A498 was > 100 µM (inactive); in the test on ACHN, > 100 µM (inactive); in the test on EKVX it was > 100 µM (inactive); in the test on HCT-15 it was > 100 µM; with HL-60, > 100 µM (inactive); in the test on HOP-92, > 100 µM (inactive). The GI50 with IGROV-1, in the test on K562, with LOX IMVI, in the test with MCF7, in the test on MDA-N and with MOLT-4 was > 100 µM (inactive) each time. Further, the GI50 with NCI-H522, with OVCAR-3, in the test on PC-3, in the test on SF-539, in the test on SK-OV-3 and in the test on SNB-19 was > 100 µM (inactive) throughout. The GI50 with T47D and in the test with TK-10 was > 100 µM (inactive) in each case.
On to `COc1cc(C2c3cc4c(cc3OC(NNC(N)=O)C2C)OCO4)cc(OC)c1OC` (stereo not given), for which the GI50 was 0.0233 µM (active) in the test on A498; 0.557 µM (active) in the test with ACHN; 2.35 µM (inactive) in the test on EKVX; 0.274 µM with HCT-15; 0.11 µM (active) with HL-60; 0.0675 µM (active) with HOP-92. For the same molecule, the GI50 with IGROV-1 was 0.427 µM (active); in the test with K562, 0.0817 µM (active); in the test on LOX IMVI, 0.145 µM (active); in the test with MCF7, 0.136 µM (active); with MDA-N, 0.0362 µM (active); with MOLT-4, 0.235 µM (active). Also, the GI50 in the test on NCI-H522 is 0.104 µM (active); with OVCAR-3, 0.0902 µM (active); with PC-3, 0.183 µM (active); in the test with SF-539, 0.0689 µM (active); in the test with SK-OV-3, 1.36 µM (inactive); with SNB-19, 0.452 µM (active). Further, the GI50 was > 66.4 µM (inactive) in the test with T47D and 34.7 µM (inactive) in the test on TK-10.

The values are drawn from ChEMBL document CHEMBL1201862, “PubChem BioAssay data set” (2004).
